# Source: ChEMBL document CHEMBL1201862, “PubChem BioAssay data set” (2004)
#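 Tested at 5 concentrations; 48 h exposure; 96-well plates; endpoints linearly interpolated, else capped at highest concentration. At the GI50, growth is halved.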 The source made the active and inactive calls. No stated cut-off is given here; in the data, active = GI50 up to about 1.1 µM and inactive = higher.
# Columns and labels:
# Experiment in all cases: inhibition of tumour cell growth, NCI panel, 48 h
# ACHN = system: ACHN
# EKVX = system: EKVX
# HCT-116 = system: HCT-116
# HT-29 = system: HT-29
# IGROV-1 = system: IGROV-1
# K562 = system: K562
# MOLT-4 = system: MOLT-4
# NCI-H522 = system: NCI-H522
# OVCAR-3 = system: OVCAR-3
# OVCAR-4 = system: OVCAR-4
# OVCAR-8 = system: OVCAR-8
# PC-3 = system: PC-3
# RPMI-8226 = system: RPMI-8226
# SF-539 = system: SF-539
# SK-MEL-2 = system: SK-MEL-2
# SK-MEL-5 = system: SK-MEL-5
# SR = system: SR
# SW-620 = system: SW-620
# U-251 = system: U-251
Structure (SMILES),GI50 (ACHN),GI50 (EKVX),GI50 (HCT-116),GI50 (HT-29),GI50 (IGROV-1),GI50 (K562),GI50 (MOLT-4),GI50 (NCI-H522),GI50 (OVCAR-3),GI50 (OVCAR-4),GI50 (OVCAR-8),GI50 (PC-3),GI50 (RPMI-8226),GI50 (SF-539),GI50 (SK-MEL-2),GI50 (SK-MEL-5),GI50 (SR),GI50 (SW-620),GI50 (U-251)
COc1nc(OC)nc(-c2cccc(F)c2)n1,16.4 µM (inactive),4.6 µM (inactive),16.7 µM (inactive),17.1 µM (inactive),16.1 µM (inactive),18.1 µM (inactive),4.99 µM (inactive),18.7 µM (inactive),13.8 µM (inactive),15.7 µM (inactive),23.4 µM (inactive),19.3 µM (inactive),10.8 µM (inactive),17.4 µM (inactive),18.8 µM (inactive),15.6 µM (inactive),2.2 µM (inactive),17.7 µM (inactive),15.7 µM (inactive)
O=c1oc2ccccc2cc1P(=O)(O)O,> 100 µM (inactive),> 100 µM (inactive),> 100 µM (inactive),> 100 µM (inactive),> 100 µM (inactive),> 100 µM (inactive),> 100 µM (inactive),> 100 µM (inactive),> 100 µM (inactive),> 100 µM (inactive),> 100 µM (inactive),> 100 µM (inactive),> 100 µM (inactive),> 100 µM (inactive),> 100 µM (inactive),> 100 µM (inactive),> 100 µM (inactive),> 100 µM (inactive),> 100 µM (inactive)
O=C(CC(NC(=O)C(F)(F)F)C(=O)O)OCc1ccccc1 (stereo not drawn),> 100 µM (inactive),> 100 µM (inactive),> 100 µM (inactive),> 100 µM (inactive),> 100 µM (inactive),> 100 µM (inactive),> 100 µM (inactive),> 100 µM (inactive),> 100 µM (inactive),> 100 µM (inactive),> 100 µM (inactive),> 100 µM (inactive),> 100 µM (inactive),> 100 µM (inactive),> 100 µM (inactive),> 100 µM (inactive),> 100 µM (inactive),> 100 µM (inactive),> 100 µM (inactive)
CC(=O)/C=C(/C=N/O)c1ccccc1,> 100 µM (inactive),> 100 µM (inactive),> 100 µM (inactive),> 100 µM (inactive),> 100 µM (inactive),> 100 µM (inactive),> 100 µM (inactive),> 100 µM (inactive),> 100 µM (inactive),> 100 µM (inactive),> 100 µM (inactive),> 100 µM (inactive),> 100 µM (inactive),> 100 µM (inactive),56.5 µM (inactive),> 100 µM (inactive),> 100 µM (inactive),> 100 µM (inactive),> 100 µM (inactive)
O=C1CSC(c2ccc([N+](=O)[O-])cc2)N1c1nc(-c2ccc3c(c2)CCCC3)cs1 (stereo not drawn),> 100 µM (inactive),> 100 µM (inactive),> 100 µM (inactive),> 100 µM (inactive),25.1 µM (inactive),> 100 µM (inactive),> 100 µM (inactive),> 100 µM (inactive),> 100 µM (inactive),> 100 µM (inactive),> 100 µM (inactive),> 100 µM (inactive),> 100 µM (inactive),27.2 µM (inactive),39.5 µM (inactive),51.1 µM (inactive),> 100 µM (inactive),> 100 µM (inactive),> 100 µM (inactive)
Cc1c2c(c(C)n1-c1ccccc1)C(=O)N(CCCCN1CCN(c3ccccc3)CC1)C2=O,23.1 µM (inactive),10 µM (inactive),7.71 µM (inactive),2.57 µM (inactive),15.1 µM (inactive),4.22 µM (inactive),5.71 µM (inactive),12.9 µM (inactive),8.95 µM (inactive),13 µM (inactive),14.2 µM (inactive),6.82 µM (inactive),7.52 µM (inactive),12 µM (inactive),22.3 µM (inactive),3.7 µM (inactive),8.85 µM (inactive),18.9 µM (inactive),14.5 µM (inactive)
CCOC(=O)C(C)c1nc2cc(N3CCN(C)CC3)c(F)cc2[nH]c1=O (stereo not drawn),> 100 µM (inactive),> 100 µM (inactive),> 100 µM (inactive),> 100 µM (inactive),> 100 µM (inactive),> 100 µM (inactive),> 100 µM (inactive),40.5 µM (inactive),> 100 µM (inactive),> 100 µM (inactive),> 100 µM (inactive),> 100 µM (inactive),> 100 µM (inactive),> 100 µM (inactive),> 100 µM (inactive),> 100 µM (inactive),> 100 µM (inactive),> 100 µM (inactive),> 100 µM (inactive)
O=C1CS[C@@](CC(c2ccc(Cl)cc2)c2ccc(Cl)cc2)(c2ccc(Cl)cc2)N1,11.2 µM (inactive),16.9 µM (inactive),9.59 µM (inactive),9.55 µM (inactive),26.4 µM (inactive),5.15 µM (inactive),3.32 µM (inactive),6.28 µM (inactive),6.21 µM (inactive),6.82 µM (inactive),14.6 µM (inactive),4.68 µM (inactive),5.05 µM (inactive),22.8 µM (inactive),19.3 µM (inactive),12.6 µM (inactive),4.24 µM (inactive),18.2 µM (inactive),10.2 µM (inactive)
Cc1ccc(Nc2cc(=O)[nH]c(=S)[nH]2)cc1,> 100 µM (inactive),> 100 µM (inactive),> 100 µM (inactive),> 100 µM (inactive),> 100 µM (inactive),> 100 µM (inactive),> 100 µM (inactive),> 100 µM (inactive),> 100 µM (inactive),> 100 µM (inactive),> 100 µM (inactive),> 100 µM (inactive),> 100 µM (inactive),> 100 µM (inactive),> 100 µM (inactive),> 100 µM (inactive),> 100 µM (inactive),> 100 µM (inactive),> 100 µM (inactive)
N#CCc1nc(-c2cc3ccc(O)cc3oc2=O)cs1,57.9 µM (inactive),63 µM (inactive),53.1 µM (inactive),72.9 µM (inactive),49.1 µM (inactive),31.5 µM (inactive),37.9 µM (inactive),> 100 µM (inactive),,43.4 µM (inactive),> 100 µM (inactive),34.3 µM (inactive),25.7 µM (inactive),69.3 µM (inactive),27.2 µM (inactive),38.7 µM (inactive),29.4 µM (inactive),39.6 µM (inactive),45.8 µM (inactive)
Nc1nc(Cl)cc(Nc2ccc3c(c2)CCC3)n1,> 100 µM (inactive),32.1 µM (inactive),43.8 µM (inactive),26.1 µM (inactive),41.5 µM (inactive),32.7 µM (inactive),2.45 µM (inactive),45.4 µM (inactive),> 100 µM (inactive),> 100 µM (inactive),80.9 µM (inactive),61.2 µM (inactive),19.7 µM (inactive),> 100 µM (inactive),> 100 µM (inactive),91.4 µM (inactive),17.4 µM (inactive),85.1 µM (inactive),> 100 µM (inactive)
CCOC(=O)C12CCC(c3c(C)cccc3C)(O1)C(C(=O)OC)=C2C(=O)OC (stereo not drawn),> 8.49 µM (inactive),> 7.18 µM (inactive),2.14 µM (inactive),0.748 µM (active),3.6 µM (inactive),3.62 µM (inactive),4.74 µM (inactive),5.38 µM (inactive),0.889 µM (active),> 9.02 µM (inactive),5.4 µM (inactive),2.09 µM (inactive),3.92 µM (inactive),2.11 µM (inactive),> 8.99 µM (inactive),0.668 µM (active),0.646 µM (active),2.07 µM (inactive),3.76 µM (inactive)
CC#CCOC(=O)c1ccccc1OC(C)=O,> 100 µM (inactive),> 100 µM (inactive),> 100 µM (inactive),,> 100 µM (inactive),> 100 µM (inactive),> 100 µM (inactive),> 100 µM (inactive),,> 100 µM (inactive),> 100 µM (inactive),> 100 µM (inactive),> 100 µM (inactive),> 100 µM (inactive),> 100 µM (inactive),> 100 µM (inactive),> 100 µM (inactive),> 100 µM (inactive),> 100 µM (inactive)
COc1ccc2nc3ccc(OC)cc3c(SCC3CO3)c2c1 (stereo not drawn),8.71 µM (inactive),13.3 µM (inactive),10.5 µM (inactive),,,8.59 µM (inactive),,13 µM (inactive),14.9 µM (inactive),19.5 µM (inactive),11 µM (inactive),14.9 µM (inactive),22.7 µM (inactive),10.8 µM (inactive),14.2 µM (inactive),15.8 µM (inactive),6.89 µM (inactive),11.1 µM (inactive),12.7 µM (inactive)
CCC1(O)CC2CC(=O)OC2C1O (stereo not drawn),> 100 µM (inactive),> 100 µM (inactive),,> 100 µM (inactive),> 100 µM (inactive),> 100 µM (inactive),> 100 µM (inactive),> 100 µM (inactive),> 100 µM (inactive),> 100 µM (inactive),> 100 µM (inactive),> 100 µM (inactive),> 100 µM (inactive),> 100 µM (inactive),> 100 µM (inactive),> 100 µM (inactive),> 100 µM (inactive),> 100 µM (inactive),> 100 µM (inactive)
